Measurements: patent US6852686B2, “Methods for ameliorating icthyosiform skin diseases” (The United States of America as represented by the …, priority 1999, dated 2005)

Tests used:
[1] = molecular target: T1, TGase 1 (Homo sapiens, UniProt P22735); assay: Lipid Z esterification of involucrin by TGase 1 on SLV; assay type: biochemical
T1 construct: Recombinant full-length human TGase 1 and TGase 3 enzymes were expressed in Sf9 cells by the BaculoGold system; made in house; host or cells: Sf9 insect cells, BaculoGold baculovirus system, pVL1392 vector
T1 sequence (P22735 1-817): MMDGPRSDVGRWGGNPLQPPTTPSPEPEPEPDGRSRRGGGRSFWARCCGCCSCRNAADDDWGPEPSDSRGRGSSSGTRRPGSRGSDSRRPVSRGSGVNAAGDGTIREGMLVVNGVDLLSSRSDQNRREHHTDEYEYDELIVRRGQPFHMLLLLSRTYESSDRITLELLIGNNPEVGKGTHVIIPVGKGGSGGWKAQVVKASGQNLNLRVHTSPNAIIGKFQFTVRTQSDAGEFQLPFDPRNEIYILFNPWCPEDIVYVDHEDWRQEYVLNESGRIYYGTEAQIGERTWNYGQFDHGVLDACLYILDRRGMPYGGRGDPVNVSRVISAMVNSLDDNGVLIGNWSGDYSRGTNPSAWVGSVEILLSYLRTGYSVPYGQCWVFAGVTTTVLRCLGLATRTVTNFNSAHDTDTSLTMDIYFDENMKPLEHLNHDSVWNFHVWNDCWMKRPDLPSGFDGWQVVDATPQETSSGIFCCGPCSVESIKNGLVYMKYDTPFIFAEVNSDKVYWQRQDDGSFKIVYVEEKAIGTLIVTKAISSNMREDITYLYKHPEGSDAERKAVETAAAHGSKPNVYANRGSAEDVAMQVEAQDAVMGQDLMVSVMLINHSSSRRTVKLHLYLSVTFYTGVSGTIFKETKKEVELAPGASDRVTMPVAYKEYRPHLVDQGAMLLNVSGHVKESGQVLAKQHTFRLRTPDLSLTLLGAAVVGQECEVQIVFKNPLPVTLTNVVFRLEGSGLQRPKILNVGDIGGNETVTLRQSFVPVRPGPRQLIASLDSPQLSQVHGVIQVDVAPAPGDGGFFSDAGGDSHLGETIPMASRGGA
Description: A mixture of 54 mol % dimyristoyl-phosphatidylcholine, 15 mol % dipalmitoyl-phosphatidylserine, 30 mol % cholesterol (all from Sigma, St. Louis, Mo.) and 1 mol % lipid Z was made in chloroform: methanol (9:1). This solution was dried down, taken up in aqueous buffer and dispersed by sonication as before (Nemes et al., J. Biol. Chem., 274: in press (1999)). The SLV suspension was equipped with TGase 1 enzyme by incubation at 37° C. for 15 min prior to adding substrates.
The reactions were stopped by the addition of EDTA to 10 mM.
Following reaction, 0.1 ml 20% SDS in water was added to the samples and the mixture was vortexed. This mixture was precipitated and washed three times with acetone-triethylamine-acetic acid (90:5:5) to remove the SDS and the unbound lipids (Konigsberg, W. H. and L. Henderson, Meth. Enzymol., 91: 254-259 (1983), herein expressly incorporated by reference in its entirety). After further washing with acetone the pellet was dried under vacuum and redissolved in 50 mM Tris-HCl (pH 7.5). Resolubilized protein was digested for 16 h with 2 mol % modified trypsin (Boehringer Mannheim). Peptides were resolved on a 250×2 mm PrimesphereC4 HPLC column (Phenomenex) and separated using a gradient elution from 75% buffer A (0.1% TFA in water) to 75% buffer B (50% 2-propanol in acetonitrile) in 40 min. Under these conditions, lipo-peptides were retarded but free peptides elute with the solvent front (Marekov, L. N. and P. M. Steinert, J. Biol. Chem., 273: 17763-17770 (1998), herein expressly incorporated by reference in its entirety).
Amino acid analysis of hydrolyzed samples (5.7 N HCl at 110° C. for 24 h in vacuo) was used to routinely measure amounts of lipo-peptides. Aliquots of isolated lipo-peptide peaks were attached to a solid support for sequencing (Marekov, L. N. and P. M. Steinert, J. Biol. Chem., 273: 17763-17770 (1998), herein expressly incorporated by reference in its entirety). Saponification of lipo-peptides was done with 1 N KOH in 80% methanol for 2 h at 37° C., after which the solution was acidified, dried and peptides were recovered by HPLC on a C18 column.

[2] = molecular target: T1, TGase 1; assay: as above; assay type: biochemical; remark: listed apart in the source
[3] = 0.3 nmol involucrin/μmol lipid, 4 h reaction

maximum lipid ester formation for Gln 496 [1, 3]: < 0.05 mol/mol | maximum lipid ester formation per mole of Gln residues 107, 118, 122, and 133 [1, 3]: 0.1 to 0.3 mol/mol | incorporation rate into involucrin ([1]; SLV formulations with 1 mol % lipid Z): 2.2±0.3 fmol of lipid Z/s | amount incorporated into SLV without interference with SLV stability or binding of involucrin and TGase 1 [2]: ≤ 25 mol % | KM of lipid Z incorporation into involucrin ([2]; rate linear up to 25 mol % lipid Z in SLV): > 100 mol %
SMILES: CCCCCCCCCCCCC/C=C/[C@@H](O)[C@H](CO)NC(=O)CCCCCCCCCCCCCCCOCCCCCCCCCCCCCCCCO [lipid Z, N-[16-(16-hydroxyhexadecyl)oxypalmitoyl]-sphingosine]
involucrin-lipid adduct formation by TGase 1 on SLV membranes ([1]; ceramide incorporated in SLV): formed saponifiable protein-lipid adducts
